Experimental data as given in US11173156B2, “Solid forms of a kynurenine-3-monooxygenase inhibitor” (CHDI Foundation, Inc., priority 2019, dated 2021).

How the values were obtained:
Type in all cases: physicochemical
[1] = Approximate aqueous solubility of salts/co-crystals (visual, solvent addition method); conditions: water; for solubility: estimated visually, solvent addition method
Procedure: (§1) A weighed sample was treated with aliquots of the test solvent at room temperature. The mixture was sonicated between additions to facilitate dissolution. Complete dissolution of the test material was determined by visual inspection. Solubility was estimated based on the total solvent used to provide complete dissolution. Some samples were then heated and observed visually for complete dissolution. The actual solubility may be greater than the value calculated because of the use of solvent aliquots that were too large or due to a slow rate of dissolution. […] If complete dissolution was achieved as a result of only one aliquot addition, the solubility is expressed as “greater than.”

[2] = Deliquescence of salts/co-crystals during exposure to 75% RH; conditions: ambient temperature, 3 day exposure; for Observation (deliquescence): visual
Procedure: The salts identified from the salt/co-crystal screen of Compound I (see section 4 above) were assessed visually for deliquescence during exposure to 75% RH at ambient temperature (Table 5). […] The materials from these experiments were recovered and re-analyzed by XRPD to determine if changes in solid form occurred.

[3] = XRPD analysis of remaining solids from aqueous solubility assessments; conditions: solids recovered from mother liquor of aqueous solubility assessment
Source text: Compound I ethylenediamine A+B disproportionated, as peaks similar to those observed for Compound I free acid Material C were observed.

[4] = Dynamic vapor sorption/desorption (DVS); conditions: for material recovered from the DVS analysis compared with starting material by XRPD: after DVS; for DVS weight loss: from about 95% to about 5% RH
Procedure: Moisture sorption/desorption data were collected on a VTI SGA-100 Vapor Sorption Analyzer. NaCl and PVP were used as calibration standards. Samples were not dried prior to analysis. Sorption and desorption data were collected over a range from 5% to 95% RH at 10% RH increments under a nitrogen purge. The equilibrium criterion used for analysis was less than 0.0100% weight change in 5 minutes with a maximum equilibration time of 3 hours. Data were not corrected for the initial moisture content of the samples.

[5] = Solubility of Compound I sodium salt forms in solvents and binary solvent systems; conditions: thermodynamic from solid, 60° C., read-out: Solubility
Procedure: as §1

[6] = Slurry experiments (form stability); conditions: for XRPD: room temp.; for relative stability of the form (in words): at the conditions evaluated
Procedure: Solutions were prepared by adding enough solids to a given solvent so that excess solids were present. The mixture was then agitated in a sealed vial at either ambient or an elevated temperature. After a given amount of time, the solids were isolated for analysis.
The formation and stability of solid forms of the sodium salt of Compound I was further evaluated via slurry experiments. The slurries were formed by combining Compound I sodium Pattern A and a solvent, and allowing the slurry to equilibrate at room temperature. If a free flowing slurry was not achieved, an additional amount of the respective solvent was added before the room temperature equilibration step. All slurries were isolated via centrifuge filtration after five days and twelve days of equilibration. The solids were analyzed by XRPD to check for pattern conversion (Table 13).

[7] = Stability at elevated temperatures (XRPD, HPLC); conditions: for chemical and physical form changes after storing at elevated temperature: about 60° C.; for HPLC: after storage at 60 ° C. (time point not given)
Procedure: The stability of Compound I sodium Patterns A, C, and D and Form B, at about 60° C. was evaluated. These forms were weighed into vials covered with a Kimwipe tissue and stored in an oven at 60° C. and ambient pressure. After three days and ten days of exposure, the solids were analyzed by XRPD to check for form conversion. […].

[8] = acetone and/or isopropanol (trituration, single form or competitive slurry)
[9] = solvent systems with high water activity

For `O=C(O)c1cc(-c2ccc(OC3CC3)c(Cl)c2)ncn1` (racemic) [Compound I arginine Material A, 6-(3-chloro-4-cyclopropoxyphenyl)pyrimidine-4-carboxylic acid], the “aqueous solubility (in words)” value ([1]; listed as Compound I Arginine Material A) was “suitable aqueous solubility”.

With `O=C(O)c1cc(-c2ccc(OC3CC3)c(Cl)c2)ncn1` (racemic) [Compound I lysine Material A, 6-(3-chloro-4-cyclopropoxyphenyl)pyrimidine-4-carboxylic acid] the solubility ([1]; thermodynamic from solid, read-out: Solubility) was under 4 mg/mL, the “aqueous solubility (in words)” value ([1]; listed as Compound I lysine material A) was “poor low aqueous solubility” and the “Observation (deliquescence)” value [2] was “no deliquescence”.

For `O=C(O)c1cc(-c2ccc(OC3CC3)c(Cl)c2)ncn1` [Compound I benzathine Form A, 6-(3-chloro-4-cyclopropoxyphenyl)pyrimidine-4-carboxylic acid], the “aqueous solubility (in words)” value [1] was “poor low aqueous solubility”, the solubility ([1]; listed as Benzathine A) was under 7 mg/mL and the “Result (XRPD after exposure)” value ([2]; listed as Benzathine A) was “Benzathine A”. The “Observation (deliquescence)” value [2] was “no deliquescence”, the “Result (XRPD of remaining solids)” value [3] was “remained unchanged by XRPD” and the “Result (XRPD of remaining solids)” value ([3]; listed as Benzathine A) was “Benzathine A”.

With `O=C(O)c1cc(-c2ccc(OC3CC3)c(Cl)c2)ncn1` [Compound I diethanolamine Form A, 6-(3-chloro-4-cyclopropoxyphenyl)pyrimidine-4-carboxylic acid] the “aqueous solubility (in words)” value [1] was “desirable aqueous solubility”, the solubility [1] was “above 260 mg/mL” and the “Observation (deliquescence)” value [2] was “no deliquescence”. The “hygroscopicity by DVS analysis (in words)” value (shortened to “hygroscopicity”) [4] was “not hygroscopic”, the “DVS weight loss upon equilibration at about 5% RH” value [4] was “about 0.2%” and the “material recovered from the DVS analysis compared with starting material by XRPD” value [4] was “substantially the same as the starting material”. For the same compound, the DVS weight gain ([4]; from about 5 to about 95% RH) was about 0.48% and the DVS weight loss [4] was about 0.47%.

In the case of `O=C(O)c1cc(-c2ccc(OC3CC3)c(Cl)c2)ncn1` [Compound I diethylamine Material A, 6-(3-chloro-4-cyclopropoxyphenyl)pyrimidine-4-carboxylic acid], the “aqueous solubility (in words)” value [1] is reported as “desirable aqueous solubility”, the solubility [1] is reported as about 30 mg/mL and the solubility ([1]; listed as Diethylamine A) is reported as over 30 mg/mL. For the same compound, the “Observation (deliquescence)” value [2] was “no deliquescence”, the “hygroscopicity” value [4] was “hygroscopic” and the “DVS weight loss upon equilibration at about 5% RH” value [4] was “about 0.08%”. For the same compound, the “material recovered from the DVS analysis compared with starting material by XRPD” value [4] was “substantially the same as the starting material”, the DVS weight gain ([4]; from about 5 to about 95% RH) was about 2.12% and the DVS weight loss [4] was about 1.92%. The “gain observed by DVS analysis” value ([4]; sorption cycle) was about 2 wt %.

With `O=C(O)c1cc(-c2ccc(OC3CC3)c(Cl)c2)ncn1` [Compound I ethanolamine Material A, 6-(3-chloro-4-cyclopropoxyphenyl)pyrimidine-4-carboxylic acid] the “aqueous solubility (in words)” value [1] was “poor low aqueous solubility”, the solubility ([1]; listed as Ethanolamine A) was under 4 mg/mL and the “Observation (deliquescence)” value [2] was “no deliquescence”.

With `O=C(O)c1cc(-c2ccc(OC3CC3)c(Cl)c2)ncn1` [Compound I meglumine Material A, 6-(3-chloro-4-cyclopropoxyphenyl)pyrimidine-4-carboxylic acid] the “aqueous solubility (in words)” value [1] was “suitable aqueous solubility”.

With `O=C(O)c1cc(-c2ccc(OC3CC3)c(Cl)c2)ncn1` [Compound I sodium Pattern A, 6-(3-chloro-4-cyclopropoxyphenyl)pyrimidine-4-carboxylic acid] the solubility ([5]; organic solvent or mixture, 2-MeTHF) was under 1100 µg/mL, the solubility ([5]; organic solvent or mixture, ACN) was under 1200 µg/mL and the solubility ([5]; organic solvent or mixture, Acetone) was under 1300 µg/mL. For the same compound, the solubility ([5]; organic solvent or mixture, BuOH) was under 1200 µg/mL, the solubility ([5]; organic solvent or mixture, DCM) was under 1300 µg/mL and the solubility ([5]; organic solvent or mixture, DMF) was 5800 to 7700 µg/mL. It also gave a solubility ([5]; organic solvent or mixture, DMSO) of 7500 to 11300 µg/mL, a solubility ([5]; organic solvent or mixture, EtOAc) of under 1100 µg/mL and a solubility ([5]; organic solvent or mixture, EtOH) of under 1300 µg/mL. The solubility ([5]; organic solvent or mixture, Heptane) was under 1200 µg/mL, the solubility ([5]; organic solvent or mixture, IPA) was under 1100 µg/mL and the solubility ([5]; organic solvent or mixture, IPAc) was under 1100 µg/mL. For the same compound, the solubility ([5]; organic solvent or mixture, MEK) was under 1300 µg/mL, the solubility ([5]; organic solvent or mixture, MIBK) was under 1200 µg/mL and the solubility ([5]; organic solvent or mixture, MTBE) was under 1100 µg/mL. It also gave a solubility ([5]; organic solvent or mixture, MeOH) of 5000 to 6700 µg/mL, a solubility ([5]; organic solvent or mixture, NMP) of 10300 to 20500 µg/mL and a solubility ([5]; organic solvent or mixture, THF) of under 1300 µg/mL. For the same compound, the solubility ([5]; organic solvent or mixture, Toluene) was under 1100 µg/mL, the solubility ([5]; organic solvent or mixture, c-Hexane) was under 1200 µg/mL and the solubility ([5]; Water) was 10000 to 20000 µg/mL. For the same compound, the “hygroscopicity” value [4] was “hygroscopic”, the “deliquescence (in words)” value ([4]; DVS analysis) was “did not show any indications of deliquescence” and the “material recovered from the DVS analysis compared with starting material by XRPD” value [4] was “substantially the same as the starting material”. The DVS weight gain ([4]; at 60% RH) was “about 4.9%”, the DVS weight gain ([4]; at 90% RH) was “about 21.2%” and the XRPD ([6]; ACN slurry, 12 days, dry) was “Amorphous”. The XRPD ([6]; ACN slurry, 12 days, wet) was “Amorphous”, the XRPD ([6]; DCM slurry, 12 days, dry) was “Low” and the XRPD ([6]; DCM slurry, 12 days, wet) was “Low”. For the same compound, the XRPD ([6]; EtOAc slurry, 5 days) was “Amorphous”, the XRPD ([6]; EtOH slurry, 5 days) was “Amorphous” and the XRPD ([6]; THF slurry, 5 days) was “Amorphous”. The XRPD ([6]; THF slurry, 12 days, dry) was “Amorphous”, the XRPD ([6]; THF slurry, 12 days, wet) was “Amorphous” and the “form conversion in slurry / trituration” value [6, 8] was “converted to Compound I sodium Form B”. The “relative stability of the form (in words)” value [6] was “metastable relative to Compound I sodium Form B”, the “form conversion in slurry / trituration” value [6, 9] was “rehydrated to Compound I Form E” and the “stability in slurry (in words)” value ([6]; water, toluene, DCM and MEK) was “stable as a single form for about five days”. The “chemical and physical form changes after storing at elevated temperature” value [7] was “No chemical and physical form changes were observed” and the HPLC [7] was over 99.9 % AUC.

For `O=C(O)c1cc(-c2ccc(OC3CC3)c(Cl)c2)ncn1` [Compound I sodium Pattern C, 6-(3-chloro-4-cyclopropoxyphenyl)pyrimidine-4-carboxylic acid], the “hygroscopicity” value [4] was “slightly hygroscopic”, the “material recovered from the DVS analysis compared with starting material by XRPD” value [4] was “substantially the same as the starting material” and the DVS weight gain ([4]; at 60% RH) was “about 1.9%”. The DVS weight gain ([4]; at 90% RH) was “about 8.4%”, the “form conversion in slurry / trituration” value [6, 8] was “converted to Compound I sodium Form B” and the “relative stability of the form (in words)” value [6] was “not stable”. The “time stable in slurry” value ([6]; methanol) was “about 10 days”, the “form conversion in slurry / trituration” value [6, 9] was “covert to Compound I sodium Form E” and the “chemical and physical form changes after storing at elevated temperature” value [7] was “No chemical and physical form changes were observed”. For the same compound, the HPLC [7] was over 99.9 % AUC.

For `O=C(O)c1cc(-c2ccc(OC3CC3)c(Cl)c2)ncn1` [Compound I tromethamine Form A, 6-(3-chloro-4-cyclopropoxyphenyl)pyrimidine-4-carboxylic acid], the “aqueous solubility (in words)” value [1] was “desirable aqueous solubility”, the solubility [1] was about 134 mg/mL and the solubility ([1]; listed as Tromethamine A) was over 134 mg/mL. The “Observation (deliquescence)” value [2] was “no deliquescence”, the “hygroscopicity” value [4] was “not hygroscopic” and the “DVS weight loss upon equilibration at about 5% RH” value [4] was “about 0.01%”. For the same compound, the “material recovered from the DVS analysis compared with starting material by XRPD” value [4] was “substantially the same as the starting material”, the DVS weight gain ([4]; from about 5 to about 95% RH) was about 0.25% and the DVS weight loss [4] was about 0.26%.
